Assay results: patent US6562871B1, “Dry granulation of pharmaceutical formulation comprising mexiletine” (Boehringer Ingelheim Pharmaceuticals, Inc., priority 2000, dated 2003)
Read-outs that look alike come from different tables or passages of the source.

Tests used:
[1] = Compressional force profiles; type: physicochemical; conditions: slugs on hydraulic press, FIG. 1 and FIG. 2
From the text: Compressional force profiles were generated on a calibrated Carver press using 12 mm standard cup punches and matching die. The punches and die were dusted with magnesium stearate to facilitate the release of the slug from the die. Five hundred milligram aliquots of drug substance were weighed and individually loaded into the die for compression. Slugs were compressed at 1000, 2000, 3000, 4000, 5000, 6000, 7000 and 8000 pounds gauge force (unless otherwise noted). Gauge force readings were corrected based on the calibration for that gauge and press. The compressed slugs for each representative force were weighed on a four place balance and measured for thickness. Pressure, volume and density were calculated using slug (tablet) geometry and area.

[2] = Experimental: Particle size and distribution was determined by suspending a sample of powder in mineral oil on a hemacytometer and counting particles in the size ranges: 1-5, 5-10, 10-25, 25-50, 50-100, 100-200, >200 μm using a polarizing light microscope. At least 200 particles were counted.
Maximum and minimum particle sizes were determined with a large sampling using a low power, stereo microscope. The sample was suspended in a well slide filled with mineral oil. Measurements of the largest and smallest particles were made with a calibrated reticule.

Pour and tap density = type: physicochemical; conditions: average of two measurements
Experimental: Pour and tap density were tested using a Van Kel dual tapper and a 100 mL fluted graduate. The tare weight of the graduate was determined. It was then filled by pouring the powder into the graduate to approximately 70 mL. The net weight was next determined and a pour density calculated by dividing the net weight by the observed volume. Tap density was determined by allowing the graduate to tap 1000 times and reading the new volume. Tap density was calculated by dividing the net weight by the new “tap” volume. Both measurements were expressed in grams/mL. Results were reported as the average of two measurements.

[3] = Flow studies (funnel flow rate, angle of repose); type: physicochemical
Experimental: The flow studies were performed using a ring stand and funnel set-up, such that the funnel was perpendicular to the table flat surface and the tip of the funnel was 6 inches from the table flat surface. The funnel was plastic with the following dimensions: upper diameter, 150 mm, lower diameter 24 mm, and overall length 135 mm. To the upper, wider diameter of the funnel a vibrator was placed touching the outer perimeter. The vibrator was set on its dial such that the indicator was in the 3 o'clock position. Fifty grams of material was placed into the funnel while holding a piece of cardboard under it. The vibrator was started, and the cardboard was removed while simultaneously starting a timer. The time for the fifty grams to pass through a funnel was recorded. The angle of repose, the maximum angle that can be obtained between the free standing surface of a powder heap and the horizontal plane, was calculated according to: […]
Where h is the height of the powder heap and D is the diameter of the base of the powder heap. Tests were performed in duplicate.

With `Cc1cccc(C)c1OCC(C)N` (centres unmarked) [Mexiletine Drug Substance, 1-(2,6-dimethyl-phenoxy)-2-propanamine] the “Compressibility (density vs pressure)” value ([1]; listed as drug substance) was “very compressible”, the “Compressibility (density vs pressure)” value ([1]; listed as mexiletine drug substance) was “very good compressional characteristics” and the “Particle Size Distribution, % by number” value ([2]; size range 1-5 μm) was 32.0%. The “Particle Size Distribution, % by number” value ([2]; size range 5-10 μm) was 23.3%, the “Particle Size Distribution, % by number” value ([2]; size range 10-25 μm) was 37.9% and the “Particle Size Distribution, % by number” value ([2]; size range 25-50 μm) was 6.6%. The “Particle Size Distribution, % by number” value ([2]; size range 50-100 μm) was 0.2%, the “Particle Size Distribution, % by number” value ([2]; size range 100-200 μm) was 0.0% and the “Particle Size Distribution, % by number” value ([2]; size range >200 μm) was 0.0%. The “Size of larger particles” value ([2]; well slide technique, larger sample sizes, very few) was 150 μm, the “Tap Density” value (Pour and tap density; 1000 taps) was 0.35 g/mL and the “Bulk Density” value (Pour and tap density; pour density) was 0.22 g/mL. The “Angle of Repose” value [3] was 62 ° and the “Flow Rate” value ([3]; 50 g through funnel, vibrator assisted) was 2.1 g/s.
